From PMC9228987, “Antiproliferative Activity of a New Quinazolin-4(3H)-One Derivative via Targeting Aurora Kinase A in Non-Small Cell Lung Cancer” (Pharmaceuticals, 2022)

Key:
[1] = test system: PC9-gef cells; test: SRB cell proliferation assay; settings: Homo sapiens, 72 h, read-out: IC50 value, PC9-gef
Protocol: (§3) The human non-small lung cancer cell lines A549, NCI-H1975, NCI-H1299, and NCI-H1993 were purchased from the American Type Culture Collection (Manassas, VA, USA). The human non-small cell lung cancer cell lines HCC827, PC9, HCC827-gef and PC9-gef were a kind gift from Dr. Jae Cheol Lee and Dr. Jin Kyung Rho (Asan Medical Center, Seoul, Korea). […] Cells were incubated at 37 °C in a humidified atmosphere with 5% CO2.
(§4) Cell viability was measured using the SRB method as described previously [58]. Briefly, cells were seeded with different concentrations of compounds and incubated for 72 h. After 72 h incubation, cells were fixed with 10% TCA for 30 min at 4 °C and stained with 0.4% (w/v) SRB in 1% acetic acid for 2 h at room temperature.

[2] = test system: PC9 cells; test: SRB cell proliferation assay; settings: Homo sapiens, PC-9, 72 h, read-out: IC50 value, PC9
Protocol: as §3, §4

[3] = target: T1, Recombinant human aurora B protein (Homo sapiens, UniProt Q96GD4); test: Cell-free aurora kinase assay (ADP-Glo); format: biochemical; settings: myelin basic protein substrate, read-out: Aurora Kinase B Inhibition (IC50)
T1 construct: purchased Abcam ab51435
T1 sequence (Q96GD4 whole entry): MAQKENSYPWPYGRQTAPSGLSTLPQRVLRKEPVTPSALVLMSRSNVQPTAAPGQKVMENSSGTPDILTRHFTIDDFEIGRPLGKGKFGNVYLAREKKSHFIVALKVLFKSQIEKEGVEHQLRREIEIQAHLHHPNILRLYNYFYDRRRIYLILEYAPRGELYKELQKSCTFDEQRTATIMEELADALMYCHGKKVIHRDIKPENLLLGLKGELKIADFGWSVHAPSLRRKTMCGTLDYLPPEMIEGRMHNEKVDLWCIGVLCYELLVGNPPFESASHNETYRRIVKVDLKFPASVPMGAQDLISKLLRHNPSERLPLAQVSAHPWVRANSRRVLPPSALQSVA
Protocol: (§1) Aurora A kinase activity was measured using an ADP-Glo™ Kinase assay kit (Promega, USA, Catalog No. # PAV9101). Recombinant human aurora A protein (Active) (ab271368) and Recombinant human aurora B protein (Active) (ab51435) were purchased from Abcam (United States, Boston, MA). […] The ADP-Glo ^TM reagents and kinase detection buffer and substrates were prepared according to the ADP-Glo™ Kinase Assay kit instructions. Luminescence was measured using a microplate reader.

[4] = target: T2, Recombinant human aurora A protein (Homo sapiens, UniProt O14965); test: Cell-free aurora kinase assay (ADP-Glo); format: biochemical; settings: myelin basic protein substrate, read-out: Aurora Kinase A Inhibition (IC50)
T2 construct: purchased Abcam ab271368
T2 sequence (O14965 1-403): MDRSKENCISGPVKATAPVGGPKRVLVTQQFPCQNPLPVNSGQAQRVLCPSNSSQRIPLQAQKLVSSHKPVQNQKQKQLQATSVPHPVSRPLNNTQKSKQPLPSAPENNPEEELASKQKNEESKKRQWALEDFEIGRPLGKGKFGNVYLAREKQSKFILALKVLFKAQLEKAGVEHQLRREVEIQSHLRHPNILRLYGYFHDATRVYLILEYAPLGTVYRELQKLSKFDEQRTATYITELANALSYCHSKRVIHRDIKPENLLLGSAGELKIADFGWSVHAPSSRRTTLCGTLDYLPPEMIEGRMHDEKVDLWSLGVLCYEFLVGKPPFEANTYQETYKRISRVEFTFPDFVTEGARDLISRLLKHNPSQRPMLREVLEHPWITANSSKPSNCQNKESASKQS
Protocol: as §1

[5] = test system: HCC827-gef cells; test: SRB cell proliferation assay; settings: Homo sapiens, 72 h, read-out: IC50 value, HCC827-gef
Protocol: as §3, §4

[6] = test system: H1975 cells; test: Annexin V-FITC/PI double staining (flow cytometry); format: cell-based, human
Protocol: Cells were treated with samples for 72 h and stained with an Annexin V-FITC apoptosis detection kit (BD Biosciences, San Jose, CA, USA) according to the manufacturer’s instructions. Briefly, cells were collected after 72 h treatment, washed with PBS, resuspended in 1× binding buffer, and stained with Annexin V-FITC and PI in the dark for 15 min. After incubation, the cells were diluted with 1× binding buffer and analyzed using an FACSCalibur flow cytometer (BD Biosciences, San Jose, CA, USA) and BD CellQuest^TM Pro version 6.0 software (BD Biosciences, San Jose, CA, USA).

[7] = test system: HCC827 cells; test: SRB cell proliferation assay; settings: Homo sapiens, HCC827, 72 h, read-out: IC50 value, HCC827
Protocol: as §3, §4

[8] = test system: cdc25C, cdc2, and p21 proteins; test: Western blotting of cell cycle regulators in H1975 cells; format: cell-based, human; settings: H1975, 24 h
Excerpt: (§2) The cells were collected and lysed in sample loading buffer (Bio-Rad, Hercules, CA, USA). Total protein concentrations were quantified using a BCA Protein Assay Kit (Thermo Fisher Scientific, Waltham, MA, USA). Quantified proteins were loaded onto SDS-polyacrylamide gels and separated by molecular weight via electrophoresis (PAGE). Then, proteins were transferred to polyvinylidene fluoride membranes (Millipore, Bedford, MA, USA); 5% BSA in Tris-buffered saline containing 0.1% Tween-20 (TBST) was used for blocking. The membranes were blocked for 30 min at room temperature with mild shaking, then incubated with antibodies diluted in 2.5% BSA in TBST overnight at 4 °C with mild shaking. Following secondary antibody incubation and washing with TBST, the chemiluminescence signals were detected using the WEST-Queen detection system (iNtRON Biotechnology, Seongnam, Korea) and LAS-4000 (Fuji Film Corp., Tokyo, Japan).

[9] = test system: H1975 cells; test: SRB cell proliferation assay; settings: Homo sapiens, NCI-H1975, 72 h, read-out: IC50 value, H1975
Protocol: as §3, §4

[10] = test system: H1299 cells; test: SRB cell proliferation assay; settings: Homo sapiens, NCI-H1299, 72 h, read-out: IC50 value, H1299
Protocol: as §3, §4

[11] = test system: H1993 cells; test: SRB cell proliferation assay; settings: Homo sapiens, NCI-H1993, 72 h, read-out: IC50 value, H1993
Protocol: as §3, §4

[12] = test system: H1975 cells; test: Cell cycle analysis (PI staining, flow cytometry); format: cell-based, human; settings: for Sub-G1 cell population: 72 h (Figure 5A)
Protocol: Cells were seeded and starved in serum-free medium overnight. After starvation, the cells were treated with compounds for the indicated times. After incubation, cells were harvested, washed with PBS, and fixed with 70% ethanol in PBS overnight at −20 °C. The fixed cells were washed with PBS, resuspended in 100 µg/mL of RNase A for 30 min at room temperature, and stained with 50 µg/mL PI. Fluorescence intensity was analyzed using a FACSCalibur flow cytometer (BD Biosciences, San Jose, CA, USA) and BD CellQuest^TM Pro version 6.0 software (BD Biosciences, San Jose, CA, USA).

[13] = test system: A549 cells; test: SRB cell proliferation assay; settings: Homo sapiens, A549, 72 h, read-out: IC50 value, A549
Protocol: as §3, §4

[14] = test system: p-aurora kinase A (T288); test: Western blotting of phospho-aurora kinase A in H1975 cells; format: cell-based, human; settings: 24 h
Excerpt: as §2

[15] = test system: cleaved PARP, PARP, cleaved caspase-8, and caspase-8 proteins; test: Western blotting of apoptosis-related proteins in H1975 cells; format: cell-based, human; settings: H1975, 72 h, concentration-dependent
Excerpt: as §2

[16] = test system: H1975 cells; test: Colony formation assay; format: cell-based, human; settings: treated 48 h, additional ten days without compound
Protocol: Cells (500 cells/well) were seeded and cultured overnight. The compounds were treated for 48 h, the cells were washed with phosphate buffered saline (PBS), and continued incubation. Culture medium was replaced every three days for ten days. Cells were fixed with 4% paraformaldehyde solution and stained with 0.1% crystal violet.

| Structure (SMILES) | IC50 [1] [µM] | IC50 [2] [µM] | IC50 [5] [µM] | IC50 [7] [µM] | IC50 [9] [µM] | IC50 [10] [µM] | IC50 [11] [µM] | IC50 [13] [µM] | further results |
| --- | --- | --- | --- | --- | --- | --- | --- | --- | --- |
| CCOC(=O)c1cn2cc(-c3ccc4ncn(Cc5ncccn5)c(=O)c4c3)ccc2n1 [BIQO-19, ethyl 6-(4-oxo-3-(pyrimidin-2-ylmethyl)-3,4-dihydroquinazolin-6-yl)imidazo [1,2-a]pyridine-2-carboxylate] | 9.21 ± 0.51 | 16.4 ± 1.44 | 4.43 ± 0.35 | 4.84 ± 0.17 | 4.76 ± 0.17 | 5.3 ± 0.06 | 5.5 ± 1.69 | 3.63 ± 0.28 | IC50 [3]: 0.581 ± 0.0138 µM; IC50 [4]: 0.0685 ± 0.00645 µM; total cell deaths (early apoptosis + late apoptosis + necrosis) ([6]; H1975, 4 μM, 72 h (Figure 5B,C)): 26.67%; early apoptosis fraction ([6]; H1975, 72 h, single vs combination treatment (Figure 6C)): 17.6%; total cell death ([6]; H1975, 72 h, single vs combination treatment (Figure 6D)): 27.1%; cdc25C and cdc2 expression [8]: effectively downregulated; p21 expression [8]: upregulated; Sub-G1 cell population ([12]; H1975, 1 μM): 2.54%; Sub-G1 cell population ([12]; H1975, 2 μM): 2.60%; G2/M cell population ([12]; H1975, 4 μM, 12 h (Figure 4A)): 35.3%; G2/M cell population ([12]; H1975, 4 μM, 24 h (Figure 4A)): 52.0%; Sub-G1 cell population ([12]; H1975, 4 μM): 15.5%; levels of p-aurora kinase A (T288) expression [14]: suppressed by BIQO-19 treatment in a concentration-dependent manner; expression levels of PARP and caspase-8 (inactivated forms) [15]: downregulated; expression levels of cleaved PARP and cleaved caspase-8 (activated forms) [15]: upregulated; colony formation in H1975 cells [16]: significant inhibition of colony formation |
| CCC(=O)Nc1nc2ccc(-c3ccc4ncn(CCc5cc6ccccc6[nH]5)c(=O)c4c3)cc2[nH]1 [FL-4, reference compound] | 6.75 ± 0.71 | 15 ± 1.41 | 6.4 ± 0.6 | 4.14 ± 0.64 | 2.81 ± 0.43 | 5.54 ± 0.85 | 4.57 ± 0.29 | 6.11 ± 1.14 |  |
